ChEMBL document CHEMBL5325405, “Rationally designed donepezil-based hydroxamates modulate Sig-1R and HDAC isoforms to exert anti-glioblastoma effects” (Eur J Med Chem, 2023)
pIC50: −log10 of the molar value. The source made the active and inactive calls. No cut-off for these calls is given here.

What was measured:
U-87 MG [1] = test: cells; assay type: functional, cell-based, U-87MG ATCC; conditions: Homo sapiens
[2] = biological target: T1, Protein deacetylase HDAC6 (Homo sapiens, UniProt Q9UBN7); test: Inhibition of human HDAC6
T1 sequence (Q9UBN7 whole entry): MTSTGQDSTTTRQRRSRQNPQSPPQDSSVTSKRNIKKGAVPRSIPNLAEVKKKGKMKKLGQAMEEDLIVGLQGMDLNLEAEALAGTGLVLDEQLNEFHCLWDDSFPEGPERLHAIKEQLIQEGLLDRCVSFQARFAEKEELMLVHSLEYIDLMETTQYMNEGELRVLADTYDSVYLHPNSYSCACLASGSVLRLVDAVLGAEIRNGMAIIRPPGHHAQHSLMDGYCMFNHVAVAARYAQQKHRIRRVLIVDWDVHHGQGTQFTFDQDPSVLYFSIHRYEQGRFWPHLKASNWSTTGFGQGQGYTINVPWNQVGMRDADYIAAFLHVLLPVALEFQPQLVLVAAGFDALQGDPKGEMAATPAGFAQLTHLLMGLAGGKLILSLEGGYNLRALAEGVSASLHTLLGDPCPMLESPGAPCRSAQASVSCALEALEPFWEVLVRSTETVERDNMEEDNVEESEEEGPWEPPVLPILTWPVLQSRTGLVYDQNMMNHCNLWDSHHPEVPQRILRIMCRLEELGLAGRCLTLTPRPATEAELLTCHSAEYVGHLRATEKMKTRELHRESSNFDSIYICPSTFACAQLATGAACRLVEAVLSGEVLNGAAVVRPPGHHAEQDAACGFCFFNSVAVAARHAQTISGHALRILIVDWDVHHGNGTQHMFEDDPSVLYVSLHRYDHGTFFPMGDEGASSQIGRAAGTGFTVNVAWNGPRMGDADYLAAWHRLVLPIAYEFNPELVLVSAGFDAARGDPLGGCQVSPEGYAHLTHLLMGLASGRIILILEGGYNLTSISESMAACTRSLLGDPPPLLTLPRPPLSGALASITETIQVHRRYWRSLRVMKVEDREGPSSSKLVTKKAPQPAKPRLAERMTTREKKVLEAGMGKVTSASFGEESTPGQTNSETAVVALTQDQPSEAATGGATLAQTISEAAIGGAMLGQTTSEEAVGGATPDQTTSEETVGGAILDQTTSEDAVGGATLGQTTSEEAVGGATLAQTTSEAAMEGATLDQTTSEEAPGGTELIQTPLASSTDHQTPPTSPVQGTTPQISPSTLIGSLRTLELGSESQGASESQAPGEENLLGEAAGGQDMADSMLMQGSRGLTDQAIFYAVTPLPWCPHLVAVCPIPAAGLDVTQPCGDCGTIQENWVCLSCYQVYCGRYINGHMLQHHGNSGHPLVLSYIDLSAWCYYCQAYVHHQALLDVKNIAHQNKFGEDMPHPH

Histone deacetylase 2 = Histone deacetylase 2 (Homo sapiens, UniProt Q92769); test: Inhibition of human HDAC2
Histone deacetylase 1 = Histone deacetylase 1 (Homo sapiens, UniProt Q13547); test: Inhibition of human HDAC1
Histone deacetylase 8 = biological target: T2, Histone deacetylase 8 (Homo sapiens, UniProt Q9BY41); test: Inhibition of human HDAC8
T2 sequence (Q9BY41 whole entry): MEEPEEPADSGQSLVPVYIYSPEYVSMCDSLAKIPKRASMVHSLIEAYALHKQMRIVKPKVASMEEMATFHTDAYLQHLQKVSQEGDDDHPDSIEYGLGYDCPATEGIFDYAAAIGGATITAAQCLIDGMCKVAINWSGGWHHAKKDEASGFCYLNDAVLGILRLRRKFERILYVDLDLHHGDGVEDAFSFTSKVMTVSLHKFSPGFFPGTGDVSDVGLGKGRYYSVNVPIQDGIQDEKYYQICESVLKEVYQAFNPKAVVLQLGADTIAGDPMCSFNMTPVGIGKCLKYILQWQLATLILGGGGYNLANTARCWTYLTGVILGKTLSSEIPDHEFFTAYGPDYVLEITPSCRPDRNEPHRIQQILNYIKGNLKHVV

U-87 MG [3] = test: Cytotoxicity against human U-87 MG cells assessed as reduction in cell growth at 10 uM measured after 3 days by MTT assay; assay type: functional, U-87MG ATCC; design: scale not given: the % may be the effect or the level left; conditions: time 3 day
Astrocyte = test: Cytotoxicity against primary astrocyte cells (unknown origin) assessed as reduction in cell growth at 3 uM measured after 3 days by MTT assay; assay type: toxicity, cell-based; conditions: 72 h, time 3 day
GBM [4] = test: Antitumor activity against Temozolomide-resistant patient derived GBM cells assessed as reduction in cell growth measured after 3 uM measured after 3 days by MTT assay; assay type: functional, cell-based; conditions: Homo sapiens, time 3.0 day
A 172 [5] = test: Induction of cell cycle arrest in human A-172 cells assessed as decrease in accumulation of cells at G0/G1 phase at 10 uM measured after 24 hrs by propidium iodide staining based flow cytometry analysis; assay type: functional
A 172 [6] = test: Induction of cell cycle arrest in human A-172 cells assessed as increase in accumulation of cells at G2/M phase at 10 uM measured after 24 hrs by propidium iodide staining based flow cytometry analysis; assay type: functional
A 172 [7] = test: Induction of cell cycle arrest in human A-172 cells assessed as accumulation of cells at subG1 phase at 10 uM measured after 48 hrs by propidium iodide staining based flow cytometry analysis; assay type: functional
A 172 [8] = test: Induction of cell cycle arrest in human A-172 cells assessed as decrease in accumulation of cells at S phase at 10 uM measured after 24 hrs by propidium iodide staining based flow cytometry analysis; assay type: functional
A 172 [9] = test: Upregulation of acetylated H3 k9/k14 expression in human A-172 cells at 1 to 10 uM measured after 8 to 24 hrs by Western blotting analysis; assay type: functional, cell-based; conditions: dose 1-10 µM, time 8-24 hrs
GBM [10] = test: Inhibition of colony formation in Temozolomide-resistant patient derived pt 3 GBM cells at 10 uM measured after 3 days by crystal violet staining based analysis; assay type: functional, cell-based; conditions: Homo sapiens, time 3.0 day
Glioblastoma stem cell [11] = test: Antiproliferative activity against Temozolomide-resistant patient derived pt 3 Glioblastoma stem cell sphere assessed as reduction in cell viability at 30 uM measure after 3 days by MTT assay; assay type: functional, cell-based; conditions: Homo sapiens, time 3.0 day
Glioblastoma stem cell [12] = test: Antiproliferative activity against Temozolomide-resistant patient derived pt 5 Glioblastoma stem cell sphere assessed as reduction in cell viability at 30 uM measure after 3 days by MTT assay; assay type: functional, cell-based; conditions: Homo sapiens, time 3.0 day
GBM [13] = test: Inhibition of colony formation in Temozolomide-resistant patient derived pt 5 GBM cells at 10 uM measured after 3 days by crystal violet staining based analysis; assay type: functional, cell-based; conditions: Homo sapiens, time 3.0 day
A 172 [14] = test: Downregulation of Spl expression in human A-172 cells at 1 to 10 uM measured after 16 hrs by Western blotting analysis; assay type: functional, cell-based; conditions: dose 1-10 µM
Glioblastoma stem cell [15] = test: Antiproliferative activity against Temozolomide-resistant patient derived pt 3 Glioblastoma stem cell sphere assessed as reduction in cell viability at 10 uM measure after 3 days by MTT assay; assay type: functional, cell-based; conditions: Homo sapiens, time 3.0 day
U-87 MG [16] = test: Antitumor activity against Temozolomide-resistant human U-87 MG cells xenografted in orthotopic BALB/c mouse assessed as prolongation of animal survival at 10 mg/kg, ip qod; assay type: functional, organism-based; conditions: U-87MG ATCC
A 172 [17] = test: […] caspase-3 expression in human A-172 cells at 1 to 10 uM measured after 16 hrs by Western blotting analysis; assay type: functional, cell-based; conditions: dose 1-10 µM
Glioblastoma stem cell [18] = test: Antiproliferative activity against Temozolomide-resistant patient derived pt 5 Glioblastoma stem cell sphere assessed as reduction in cell viability at 10 uM measure after 3 days by MTT assay; assay type: functional, cell-based; conditions: Homo sapiens, time 3.0 day
A 172 [19] = test: Upregulation of acetylated tubulin expression in human A-172 cells at 1 to 10 uM measured after 8 to 24 hrs by Western blotting analysis; assay type: functional, cell-based; conditions: dose 1-10 µM, time 8-24 hrs
A 172 [20] = test: Upregulation of acetylated Sig-1R expression in human A-172 cells by immunoblotting analysis; assay type: functional, cell-based
A 172 [21] = test: Downregulation of PCNA expression in human A-172 cells at 1 to 10 uM measured after 16 hrs by Western blotting analysis; assay type: functional, cell-based; conditions: dose 1-10 µM
GBM [22] = test: Inhibition of colony formation in Temozolomide-resistant patient derived pt 3 GBM cells at 3 to 30 uM measured after 3 days by crystal violet staining based analysis; assay type: functional, cell-based; conditions: Homo sapiens, dose 3-30 µM, time 3.0 day
GBM [23] = test: Inhibition of colony formation in Temozolomide-resistant patient derived pt 5 GBM cells at 3 to 30 uM measured after 3 days by crystal violet staining based analysis; assay type: functional, cell-based; conditions: Homo sapiens, dose 3-30 µM, time 3.0 day
U-87 MG [24] = test: Cytotoxicity against human U-87 MG cells assessed as reduction in cell growth at 30 uM measured after 3 days by MTT assay; assay type: functional, U-87MG ATCC; design: scale not given: the % may be the effect or the level left; conditions: time 3 day

Histone deacetylase 2, sequence (Q92769 whole entry): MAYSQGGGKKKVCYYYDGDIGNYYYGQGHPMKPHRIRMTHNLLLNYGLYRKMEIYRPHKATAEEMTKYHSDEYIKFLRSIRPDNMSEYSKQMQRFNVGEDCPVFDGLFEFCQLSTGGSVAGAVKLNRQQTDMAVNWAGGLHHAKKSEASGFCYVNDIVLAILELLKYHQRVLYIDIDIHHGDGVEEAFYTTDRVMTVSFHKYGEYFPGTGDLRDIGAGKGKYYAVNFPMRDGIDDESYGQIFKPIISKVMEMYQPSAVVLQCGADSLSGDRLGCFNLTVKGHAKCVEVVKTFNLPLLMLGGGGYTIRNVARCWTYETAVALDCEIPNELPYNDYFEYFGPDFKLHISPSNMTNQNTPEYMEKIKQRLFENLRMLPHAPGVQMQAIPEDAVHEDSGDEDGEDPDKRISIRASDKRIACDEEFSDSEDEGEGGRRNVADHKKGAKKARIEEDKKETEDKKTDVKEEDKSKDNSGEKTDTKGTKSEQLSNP
Histone deacetylase 1, sequence (Q13547 whole entry): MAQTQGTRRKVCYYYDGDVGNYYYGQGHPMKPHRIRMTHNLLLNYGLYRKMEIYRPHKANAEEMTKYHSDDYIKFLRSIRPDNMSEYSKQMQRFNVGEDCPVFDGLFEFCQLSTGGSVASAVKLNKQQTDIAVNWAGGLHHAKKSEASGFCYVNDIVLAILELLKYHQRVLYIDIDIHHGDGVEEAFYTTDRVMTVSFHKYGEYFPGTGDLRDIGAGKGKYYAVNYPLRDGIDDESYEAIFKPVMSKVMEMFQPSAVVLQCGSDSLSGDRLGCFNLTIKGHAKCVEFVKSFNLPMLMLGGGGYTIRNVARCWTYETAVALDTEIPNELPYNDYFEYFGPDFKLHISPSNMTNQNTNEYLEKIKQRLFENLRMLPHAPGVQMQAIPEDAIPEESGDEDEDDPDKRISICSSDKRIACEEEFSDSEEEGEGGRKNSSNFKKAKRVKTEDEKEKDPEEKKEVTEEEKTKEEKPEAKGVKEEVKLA

pIC50 (U-87 MG [1])	pIC50 [2]	pIC50 (Histone deacetylase 2)	pIC50 (Histone deacetylase 1)	pIC50 (Histone deacetylase 8)	SMILES	Activity (U-87 MG [3]) [%]	Activity (Astrocyte)	Activity (GBM [4])	further results
4.77					COc1cc2c(cc1OC)C(=O)C(CC1CCN(S(=O)(=O)c3ccc(/C=C/C(=O)NO)cc3)CC1)C2 (stereo not given)				
4.34					COc1cc2c(cc1OC)C(=O)C(CC1CCN(Cc3ccc(C(=O)NO)cc3)CC1)C2 (stereo not given)				
5.20	6.96	5.47	5.78	5.76	COc1cc2c(cc1OC)C(=O)C(CC1CCN(S(=O)(=O)c3cccc(/C=C/C(=O)NO)c3)CC1)C2 (stereo not given)				
5.75	6.62	6.30	5.61	6.95	COc1cc2c(cc1OC)C(=O)C(CC1CCN(Cc3ccc(/C=C/C(=O)NO)cc3)CC1)C2 (stereo not given)	90	Toxic	Active	
4.54					COc1cc2c(cc1OC)C(=O)C(CC1CCN(C(=O)CCCCCCCCC(=O)NO)CC1)C2 (stereo not given)				
4.37					COc1cc2c(cc1OC)C(=O)C(CC1CCN(C(=O)CCCCCCCC(=O)NO)CC1)C2 (stereo not given)				
5.31	7.29	5.85	6.21	5.91	COc1cc2c(cc1OC)C(=O)C(CC1CCN(Cc3cccc(NC(=O)CCCCCCC(=O)NO)c3)CC1)C2 (stereo not given)	90	Non-Toxic	Active	Activity (A 172 [5]): Active; Activity (A 172 [6]): Active; Activity (A 172 [7]): Active; Activity (A 172 [8]): Active
5.24	8.57	6.15	6.50	6.07	COc1cc2c(cc1OC)C(=O)C(CC1CCN(Cc3ccc(NC(=O)CCCCCCC(=O)NO)cc3)CC1)C2 (stereo not given)	90	Non-Toxic	Active	Activity (A 172 [9]): Active; inhibition (GBM [10]): Active; Activity (Glioblastoma stem cell [11]): Active; Activity (Glioblastoma stem cell [12]): Active; Activity (A 172 [5]): Active; inhibition (GBM [13]): Active; Activity (A 172 [14]): Active; Activity (A 172 [6]): Active; Activity (Glioblastoma stem cell [15]): Active; Activity (U-87 MG [16]): Active; Activity (A 172 [7]): Active; Activity (A 172 [17]): Active; Activity (Glioblastoma stem cell [18]): Active; Activity (A 172 [8]): Active; Activity (A 172 [19]): Active; Activity (A 172 [20]): Active; Activity (A 172 [21]): Active
5.10					COc1cc2c(cc1OC)C(=O)C(CC1CCN(C(=O)CCCCCCC(=O)NO)CC1)C2 (stereo not given)				
5.21	7.30			5.67	COc1cc2c(cc1OC)C(=O)C(CC1CCN(Cc3ccc(NCc4ccc(C(=O)NO)cc4)cc3)CC1)C2 (stereo not given)	90	Non-Toxic	Active	inhibition (Histone deacetylase 2): inactive; inhibition (Histone deacetylase 1): inactive
4.33					COc1cc2c(cc1OC)C(=O)C(CC1CCN(Cc3ccccc3)CC1)C2 (stereo not given) [DONEPEZIL]			inactive	inhibition (GBM [22]): inactive; Activity (Glioblastoma stem cell [11]): Active; Activity (Glioblastoma stem cell [12]): Active; inhibition (GBM [23]): inactive; Activity (A 172 [20]): inactive; Activity (U-87 MG [24]): 50%
					O=C(CCCCCCC(=O)Nc1ccccc1)NO [VORINOSTAT]		Toxic	Active	Activity (A 172 [20]): inactive
4.37					COc1cc2c(cc1OC)C(=O)C(CC1CCN(C(=O)CCCCCC(=O)NO)CC1)C2 (stereo not given)				
